Test results published in patent US8106203B2, “Assay methods using chemiluminescent detection of peroxidase” (Lumigen, Inc., priority 2001, dated 2012).

What was measured:
peroxidase = conditions: reacted with HRP; disclosed in U.S. Pat. No. 5,922,558; cited from earlier work
HRP [1] = molecular target: T1, HRP (Armoracia rusticana, UniProt P00433); experiment: Comparison of signal intensity (Example 10): maximum signal with HRP; type: biochemical, horseradish; conditions: 3×10^−4 M compound, 0.025 M tris pH 8, 2.5 mM urea peroxide, 4 mM p-hydroxycinnamic acid; 3.5×10^−16 moles of HRP
T1 sequence (P00433 31-338): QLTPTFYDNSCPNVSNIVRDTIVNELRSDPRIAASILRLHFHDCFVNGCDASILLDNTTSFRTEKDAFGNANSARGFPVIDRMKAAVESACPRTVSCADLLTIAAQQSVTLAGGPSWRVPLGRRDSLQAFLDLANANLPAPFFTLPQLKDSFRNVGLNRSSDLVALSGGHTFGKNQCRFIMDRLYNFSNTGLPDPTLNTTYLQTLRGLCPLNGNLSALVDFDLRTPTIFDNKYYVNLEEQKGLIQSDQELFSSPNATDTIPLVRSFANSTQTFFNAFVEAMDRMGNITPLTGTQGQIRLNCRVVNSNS
Description: The maximum signal produced by each of compounds 14, and 27-29 was compared by reacting a 100 μL aliquot of reagent compositions comprising 0.025 M tris buffer, pH 8, 2.5 mM urea peroxide, 4 mM p-hydroxycinnamic acid, 0.5 mM EDTA, 0.1% Tween 20, and 3×10^−4 M of the test compound with 3.5×10^−16 moles of HRP. Each reagent reached maximum light intensity in about 1 minute.

HRP [2] = molecular target: T1, HRP; experiment: Chemiluminescence time profile (Example 12); type: biochemical, horseradish; conditions: 3×10^−4 M compound 27, 3.5×10^−16 moles of HRP; compared with reagents of Example 11
Description: Reagent compositions comprising 0.025 M tris buffer, pH 8.0, 2.5 mM urea peroxide, 4 mM p-hydroxy-cinnamic acid, 0.5 mM EDTA, 0.1% Tween 20, and 3×10^−4 M compound 27 were tested for production of chemiluminescence by reacting a 100 μL aliquot with 3.5×10^−16 moles of HRP.

HRP [3] = molecular target: T1, HRP; experiment: Comparison of signal intensity (Example 9): chemiluminescence on reaction of reagent with HRP; type: biochemical, horseradish; conditions: 5×10^−5 M compound, 0.01 M tris pH 8, 0.5 mM urea peroxide, 0.1 mM p-phenylphenol, 0.025% Tween 20; 3.5×10^−16 moles of HRP
Description: Reagent compositions comprising 0.01 M tris buffer, pH 8, 0.5 mM urea peroxide, 0.1 mM p-phenylphenol, […], 0.025% Tween 20, and 5×10^−5 M of each compound in the table below except the compound designated Ref. 1 were tested for production of chemiluminescence by reacting a 100 μL aliquot with 3.5×10^−16 moles of HRP. The reagent formulation for Ref. 1 comprised 0.05 M tris buffer, pH 8.6, 0.25 mM urea peroxide, 0.05 mM p-phenylphenol, 0.5 mM EDTA, 0.0125% Tween 20, and 3.3×10^−4 M Ref. 1. For comparison, data are provided for reference compounds 1 and 2.

HRP [4] = molecular target: T1, HRP; experiment: Chemiluminescent detection of HRP with compound 27; type: biochemical, horseradish; conditions: 3×10^−4 M compound 27, pH 8.0, p-hydroxycinnamic acid
Description: (§1) Reagent compositions comprising 0.025 M tris buffer, pH 8.0, 2.5 mM urea peroxide, 4 mM p-hydroxycinnamic acid, 0.5 mM EDTA, 0.1% Tween 20 and 3×10^−4 M compound 27 were tested for production of chemiluminescence by reacting triplicate 100 μL aliquots with 10 μL of HRP in the range 1.4×10^−16 to 1.4×10^−20 moles. Light production ensued upon mixing and reached maximum intensity in about 1 min. The relation between chemiluminescence intensity at 1.5 min and amount of enzyme is depicted in FIG. 2 along with the results for Ref. compound 1 at 15 min as described above.

HRP [5] = molecular target: T1, HRP; experiment: Comparison of signal intensity (Example 17): maximum signal with HRP; type: biochemical, horseradish; conditions: 1 mM test compound (Formulation 1.0); 3.5×10^−16 moles of HRP
Description: The maximum signal produced by each of compounds 40-51 was compared by reacting a 100 μL aliquot of reagent compositions comprising 0.025 M tris buffer, pH 8, 2.5 mM urea peroxide, 4 mM p-hydroxycinnamic acid, 0.5 mM EDTA, 0.1% Tween 20, and either 1 mM, 0.3 mM, 0.15 mM or 0.05 mM of the test compound with 3.5×10^−16 moles of HRP. Each reagent reached maximum light intensity in 1-3 minutes.

HRP [6] = molecular target: T1, HRP; experiment: Stability of working solutions by solution assay; type: physicochemical, horseradish; design: key to Activity / Activity (Control): maximum chemiluminescence intensity (arbitrary light units); conditions: for Activity (Control): fresh reagent from components stored at 4° C.; for Activity: stored working solution
Description: Reagent stability of the working solutions of compound 53 and compound 46 was assessed by preparing the working solution by combining 50 μL aliquots of the two component solutions and storing the mixed solutions at 4° C. or room temperature. The working solution contained 0.025 M tris buffer, pH 8, 2.5 mM urea peroxide, 4 mm p-hydroxycinnamic acid, 0.5 mM EDTA, 0.1% Tween 20, and 0.05 mM of the substrate. Chemiluminescent assays were run with 3.5×10^−16 moles of HRP at 25° C. Maximum intensity results were compared to the values obtained with fresh reagent prepared from the individual components stored at 4° C. […] The composition containing compound 53 was unchanged after four months at 4° C., that containing compound 46 was unchanged after 9 months at 4° C.

HRP-labeled antibody [7] = molecular target: T2, HRP-labeled antibody (Armoracia rusticana, UniProt P00433); experiment: Stability of working solution by western blot assay; type: physicochemical; conditions: stored 1 year at 4° C.
T2 sequence (P00433 31-338): T1 sequence (P00433 31-338)
Description: (§2) Western blot assays of β-galactosidase were conducted according to Example 13 but using nitrocellulose membrane and a detection reagent comprising 0.025 M tris buffer, pH 8.0, 2.5 mM urea peroxide, 4 mM p-hydroxycinnamic acid, 0.5 mM EDTA, 0.1% Tween 20, and 1 mM compound 46.
A further measure of the long term stability of a working solution containing compound 46 was provided by serial western blot assays over a 1 year period according to the procedure in example 18. FIG. 9 depicts the performance comparison in the western blot protocol described above using fresh vs. 1 year old working solutions.

HRP-labeled antibody [8] = molecular target: T2, HRP-labeled antibody; experiment: Western blot of β-galactosidase on nitrocellulose membrane with compound 46; type: biochemical; conditions: 1 mM compound 46, nitrocellulose, time points up to 120 min
Description: A western blot assay of β-galactosidase as the test antigen was conducted according to the procedure described in U. K. Laemmli, Nature (London), 227, 680 (1970) using a PVDF membrane. β-Galactosidase standards in the range of 5000-5 pg. The detection reagent containing Compound 1 permitted detection to be performed in under 1 minute.
as §2

HRP [9] = molecular target: T1, HRP; experiment: Chemiluminescent detection of HRP with compound 14; type: biochemical, horseradish; conditions: 3×10^−4 M compound 14, pH 8.0, p-hydroxycinnamic acid
Description: as §1, with “14” for “27”, “intensity” for “intensity at 1.5 min”, “1. For comparison,” for “2 along with”, “relationship between S-B and amount of HRP is also shown” for “results”, “reference” for “Ref.”, “having the formula:” for “at 15 min as described above.”
The results for the reference compound were measured 15 minutes after addition of 10 μL of solutions of HRP containing between 1.4×10^−15 and 1.4×10^−19 moles of enzyme to 100 μL of the reagent comprising 0.055 M tris buffer, pH 8.6, 0.25 mM urea peroxide, 0.05 mM p-phenylphenol, 0.5 mM EDTA, 0.0125% Tween 20 and 3.3×10^−4 M of Ref 1.

COC(Sc1ccccc1)=C1c2ccccc2N(C)c2ccccc21 [drawing 18]
time to reach maximum chemiluminescence intensity (peroxidase): 7 min

CSC(SCCCS(=O)(=O)[O-])=C1c2ccccc2N(Cc2ccccc2)c2ccccc21.[Na+] [Compound 27]
Signal/Background (HRP [1]): 6933 | relative chemiluminescence time profile (HRP [2]): rapid generation of chemiluminescence and higher signal level | Signal/Background (HRP [3]): 533 | time to reach maximum intensity (HRP [4]): about 1 min

O=S(=O)([O-])CCCOC1CSC(=C2c3ccccc3N(c3ccccc3)c3ccccc32)SC1.[Na+] (stereo not shown) [Compound 46]
Signal/Background (HRP [5]): 13000 | % Rel. Activity (Control) (HRP [6]; 2 months): 101.6% | % Rel. Activity (Control) (HRP [6]; 3.5 months): 100.2% | % Rel. Activity (Control) (HRP [6]; 4 months): 100.0% | % Rel. Activity (Control) (HRP [6]; 6 months): 97.0% | % Rel. Activity (Control) (HRP [6]; 9 months): 99.3% | working solution composition after storage (HRP [6]; 9 months at 4° C.): unchanged | % Rel. Activity (Control) (HRP [6]; 12 months): 90.9% | Activity (Control) (HRP [6]; 2 months): 610 | Activity (Control) (HRP [6]; 3.5 months): 613 | Activity (Control) (HRP [6]; 4 months): 600 | Activity (Control) (HRP [6]; 6 months): 660 | Activity (Control) (HRP [6]; 9 months): 720 | Activity (Control) (HRP [6]; 12 months): 660 | Activity (HRP [6]; 2 months): 620 | Activity (HRP [6]; 3.5 months): 614 | Activity (HRP [6]; 4 months): 600 | Activity (HRP [6]; 6 months): 640 | Activity (HRP [6]; 9 months): 715 | Activity (HRP [6]; 12 months): 600 | reagent performance on storage of working solution (HRP [6]; up to three weeks at room temperature, 0.05 mM substrate): no deterioration of reagent performance | western blot performance, fresh vs. 1 year old working solution (HRP-labeled antibody [7]): no diminution in blotting assay sensitivity | detection of β-gal (HRP-labeled antibody [8]): excellent sensitivity

CSC(SCCCS(=O)(=O)[O-])=C1c2ccccc2N(c2ccccc2)c2ccccc21.[Na+] [Compound 14]
Signal/Background (HRP [1]): 2491 | Signal/Background (HRP [3]): 688 | time to reach maximum intensity (HRP [9]): about 1 min
